How the values were obtained:
Polygonum convolvulus = assay: Post-emergence action against weeds, greenhouse, visual scoring; format: in vivo; settings: scoring 11 days after application
Procedure: (§1) Seeds or rhizome pieces of monocotyledonous and dicotyledonous weeds were placed in sandy loam soil in plastic pots, covered with soil and cultivated in a greenhouse under good growth conditions. Three weeks after sowing, the test plants were treated at the 2- to 4-leaf stage. The compounds according to the invention, formulated as wettable powders or as emulsion concentrates, were sprayed onto the green parts of the plants in various dosages at a water application rate of 100 to 800 l/ha (converted). After the test plants had been left to stand in the greenhouse for 10 to 28 days under optimum growth conditions, the effect of the preparations was scored visually in comparison to untreated controls.
0%=no control 100%=complete control

Galium aparine = assay: as above; format: in vivo; settings: scoring 11 days after application, 0=no control, 100=complete control
Procedure: as §1
0=no control 100=complete control

`Cc1nn(C)c(O)c1C(=O)c1ccc(C(F)(F)F)cc1S(C)(=O)=O` [Compound B1-6, pyrasulfotole] was tested, and the “Polygonum convolvulus Control in %” value (Polygonum convolvulus; 25 g of ai/ha, 0%=no control, 100%=complete control) was 20%.

`CCOC(=O)COc1cc(-c2nn(C)c(OC(F)F)c2Cl)c(F)cc1Cl` [Compound B2-1, pyraflufen-ethyl] was tested, and the “Galium aparine Control in %” value (Galium aparine; 2 g of ai/ha) was 23%.

For `CS(=O)(=O)c1cc(C(F)(F)F)ccc1C(=O)c1cnoc1C1CC1` [Compound B3-3, isoxaflutole], the “Polygonum convolvulus Control in %” value (Polygonum convolvulus; 50 g of ai/ha, 0=no control, 100=complete control) was 25%.

In the case of `COCc1cnc(C2=NC(C)(C(C)C)C(=O)N2)c(C(=O)O)c1` (centres unmarked) [Compound B4-2, imazamox], the “Galium aparine Control in %” value (Galium aparine; 10 g of ai/ha) is reported as 75%.

For `CCN(C(=O)n1nnn(-c2ccccc2Cl)c1=O)C1CCCCC1` [Compound B8-1, fentrazamide], the “Polygonum convolvulus Control in %” value (Polygonum convolvulus; 250 g of ai/ha, 0%=no control, 100%=complete control) was 20%.

With `CCc1cc(C)cc(CC)c1-c1c(OC(=O)C(C)(C)C)n2n(c1=O)CCOCC2` [Compound B9-1, pinoxaden] the “Polygonum convolvulus Control in %” value (Polygonum convolvulus; 15 g of ai/ha, 0=no control, 100=complete control) was 20%.

For “sodium salt of 2-iodo-N-[(4-methoxy-6-methyl-1,3,5-triazin-2-yl)carbamoyl]benzenesulfonamide [Compound A-2]”, the “Polygonum convolvulus Control in %” value (Polygonum convolvulus; 2.5 g of ai/ha, 0%=no control, 100%=complete control) was 10% and the “Galium aparine Control in %” value (Galium aparine; 2.5 g of ai/ha) was 0%.

— patent US20100323894A1, “HERBICIDAL COMBINATION” (Bayer CropScience AG, priority 2007, published 2010)
